Test results from article PMC6364417, “Kinase inhibitor library screening identifies synergistic drug combinations effective in sensitive and resistant melanoma cells” (Journal of Experimental & Clinical Cancer Research : CR, 2019).

What was measured:
Experiment in all cases: Kinase inhibitor library screening, PrestoBlue cell viability, 1 or 10 μM, 72 h
A375 cells (parental) = test system: A375 cells (parental)
[1] = test system: IGR37-GP cells (Dabrafenib-resistant)
[2] = test system: A375-XP cells (Vemurafenib-resistant)
[3] = test system: 501Mel-XP cells (Vemurafenib-resistant); conditions: 72 h
[4] = test system: 501Mel-GP cells (Dabrafenib-resistant); conditions: 72 h
[5] = test system: A375-GP cells (Dabrafenib-resistant)
501Mel cells (parental) = conditions: 72 h
Method in brief: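 Normalised to untreated controls, viability percentages came from PrestoBlue measured on a microplate reader following 72 h incubation with drug. Each line was assayed at least twice.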

IGR37 cells (parental) = test system: IGR37 cells (parental)
[6] = test system: IGR37-XP cells (Vemurafenib-resistant)

SMILES: CC1(COc2ccc3c(c2)ncn3-c2ccc3cccc(N4CCC(N)CC4)c3n2)COC1 [Crenolanib (CP-868596)]
- Cell viability in kinase inhibitor library screening, A375 Parental, 10μΜ (A375 cells (parental); A375 Parental, 10μΜ, 72 h): 69.9
- Cell viability in kinase inhibitor library screening, A375 Parental, 1μΜ (A375 cells (parental); A375 Parental, 1μΜ, 72 h): 109.2
- Cell viability in kinase inhibitor library screening, IGR37 GP, 10μΜ ([1]; IGR37 GP, 10μΜ, 72 h): 84.5%
- Cell viability in kinase inhibitor library screening, IGR37 GP, 1μΜ ([1]; IGR37 GP, 1μΜ, 72 h, in %): 104.5
- Cell viability in kinase inhibitor library screening, A375 XP, 1μΜ ([2]; A375 XP, 1μΜ, 72 h): 108.4
- Cell viability in kinase inhibitor library screening, A375 XP, 10μΜ ([2]; A375 XP, 10μΜ, 72 h): 78.4
- Cell viability in kinase inhibitor library screening, 501Mel XP, 10μΜ ([3]; 501Mel XP, 10μΜ, in %): 0.1
- Cell viability in kinase inhibitor library screening, 501Mel GP, 1μΜ ([4]; 501Mel GP, 1μΜ, in %): 108.6
- Cell viability in kinase inhibitor library screening, 501Mel GP, 10μΜ ([4]; 501Mel GP, 10μΜ, in %): 51.0
- Cell viability in kinase inhibitor library screening, A375 GP, 10μΜ ([5]; A375 GP, 10μΜ, 72 h): 66.5
- Cell viability in kinase inhibitor library screening, 501Mel Parental, 1μΜ (501Mel cells (parental); 501Mel Parental, 1μΜ, in %): 112.4
- Cell viability in kinase inhibitor library screening, 501Mel Parental, 10μΜ (501Mel cells (parental); 501Mel Parental, 10μΜ, in %): 12.0
- Cell viability in kinase inhibitor library screening, IGR37 Parental, 1μΜ (IGR37 cells (parental); IGR37 Parental, 1μΜ, 72 h, in %): 103.4
- Cell viability in kinase inhibitor library screening, IGR37 Parental, 10μΜ (IGR37 cells (parental); IGR37 Parental, 10μΜ, 72 h, in %): 89.7
- Cell viability in kinase inhibitor library screening, IGR37 XP, 10μΜ ([6]; IGR37 XP, 10μΜ, 72 h): 30.9%

SMILES: C[C@@H](Oc1cc(-c2cnn(C3CCNCC3)c2)cnc1N)c1c(Cl)ccc(F)c1Cl [Crizotinib (PF-02341066)]
- cell viability (kinase inhibitor library screening) (A375 cells (parental); A375 Parental, 10μΜ, 72 h): 20.5%
- cell viability (kinase inhibitor library screening) (A375 cells (parental); A375 Parental, 1μΜ, 72 h): 98.4%
- cell viability (kinase inhibitor library screening) ([1]; IGR37 GP, 1μΜ, 72 h): 97.3%
- cell viability (kinase inhibitor library screening) ([1]; IGR37 GP, 10μΜ, 72 h): 6.1%
- cell viability (kinase inhibitor library screening) ([2]; A375 XP, 1μΜ, 72 h): 99.3%
- cell viability (kinase inhibitor library screening) ([2]; A375 XP, 10μΜ, 72 h): 17.2%
- cell viability (kinase inhibitor library screening) ([3]; 501Mel XP, 1μΜ): 62.4%
- cell viability (kinase inhibitor library screening) ([3]; 501Mel XP, 10μΜ): -0.46%
- cell viability (kinase inhibitor library screening) ([4]; 501Mel GP, 1μΜ): 80.0%
- cell viability (kinase inhibitor library screening) ([4]; 501Mel GP, 10μΜ): -0.355%
- cell viability (kinase inhibitor library screening) ([5]; A375 GP, 1μΜ, 72 h): 94.9%
- cell viability (kinase inhibitor library screening) ([5]; A375 GP, 10μΜ, 72 h): 14.4%
- cell viability (kinase inhibitor library screening) (501Mel cells (parental); 501Mel Parental, 1μΜ): 97.3%
- cell viability (kinase inhibitor library screening) (501Mel cells (parental); 501Mel Parental, 10μΜ): 0.235%
- cell viability (kinase inhibitor library screening) (IGR37 cells (parental); IGR37 Parental, 1μΜ, 72 h): 93.8%
- cell viability (kinase inhibitor library screening) (IGR37 cells (parental); IGR37 Parental, 10μΜ, 72 h): 8.1%
- cell viability (kinase inhibitor library screening) ([6]; IGR37 XP, 1μΜ, 72 h): 100.4%
- cell viability (kinase inhibitor library screening) ([6]; IGR37 XP, 10μΜ, 72 h): 1.5%

SMILES: N#CCNC(=O)c1ccc(-c2ccnc(Nc3ccc(N4CCOCC4)cc3)n2)cc1 [Cyt387]
- viability at 1 µM (A375 cells (parental); Homo sapiens, A-375, 72 h, read-out: cell viability, A375 Parental, 1μΜ): 99.6%
- viability at 10 µM (A375 cells (parental); Homo sapiens, A-375, 72 h, read-out: cell viability, A375 Parental, 10μΜ): 48.4%
- viability at 1 µM ([1]; Homo sapiens, IGR-37, 72 h, read-out: cell viability, IGR37 GP, 1μΜ): 94.2%
- viability at 10 µM ([1]; Homo sapiens, IGR-37, 72 h, read-out: cell viability, IGR37 GP, 10μΜ): 25.5%
- viability at 1 µM ([2]; Homo sapiens, A-375, 72 h, read-out: cell viability, A375 XP, 1μΜ): 95.8%
- viability at 10 µM ([2]; Homo sapiens, A-375, 72 h, read-out: cell viability, A375 XP, 10μΜ): 64.7%
- viability at 1 µM ([3]; Homo sapiens, read-out: cell viability, 501Mel XP, 1μΜ): 115%
- viability at 10 µM ([3]; Homo sapiens, read-out: cell viability, 501Mel XP, 10μΜ): 35.8%
- viability at 1 µM ([4]; Homo sapiens, read-out: cell viability, 501Mel GP, 1μΜ): 105%
- viability at 10 µM ([4]; Homo sapiens, read-out: cell viability, 501Mel GP, 10μΜ): 50.6%
- viability at 1 µM ([5]; Homo sapiens, A-375, 72 h, read-out: cell viability, A375 GP, 1μΜ): 94.4%
- viability at 10 µM ([5]; Homo sapiens, A-375, 72 h, read-out: cell viability, A375 GP, 10μΜ): 43.9%
- viability at 1 µM (501Mel cells (parental); Homo sapiens, read-out: cell viability, 501Mel Parental, 1μΜ): 101%
- viability at 10 µM (501Mel cells (parental); Homo sapiens, read-out: cell viability, 501Mel Parental, 10μΜ): 60.8%
- viability at 1 µM (IGR37 cells (parental); Homo sapiens, IGR-37, 72 h, read-out: cell viability, IGR37 Parental, 1μΜ): 103%
- viability at 10 µM (IGR37 cells (parental); Homo sapiens, IGR-37, 72 h, read-out: cell viability, IGR37 Parental, 10μΜ): 86.1%
- viability at 1 µM ([6]; Homo sapiens, IGR-37, 72 h, read-out: cell viability, IGR37 XP, 1μΜ): 106%
- viability at 10 µM ([6]; Homo sapiens, IGR-37, 72 h, read-out: cell viability, IGR37 XP, 10μΜ): 11.7%
